Test results as given in patent publication US5043166A, “Liposome/anthraquinone drug composition and method” (priority 1989, dated 1991).
Where two headings read alike, the source gives them in different places.

How the values were obtained:
[1] = organ distribution of DXR after administration free or in liposomes; type: in vivo
Sabra mice = assay: blood biochemistry after repeated administration; type: in vivo
Experimental: Sabra mice were divided into groups of 15 mice. Three different doses of either F-DXR or L-DXR were tested: 5, 7.5, and 10 mg/kg body weight. Each dose level was tested on 15 male and 15 female mice. Treatment was administered as a bolus injection through the tail vein on days 0, 14, 28, 42, 56, 70, 84, and 98 of the experiment. The pulsed injection scheme was used for the purpose of achieving high cumulative doses, prolonging the period of exposure of the animals to the drug, and mimicking the way DXR is usually administered in clinical practice. In view of the toxicity observed after single injection (Example XI), DXR was administered at a maximum 10 mg/kg dosage so that the occurrence of acute toxicity would be reduced or nil. In order to avoid the overlapping myelosuppression of successive treatment, 14 days were allowed between successive injections, based on previous observations that full regeneration of the activity of myeloid centers in the spleen after treatment with 10 mg/kg of DXR occurred between 7-12 days after drug administration.
During the course of the experiment, mice were inspected daily and survival curves were recorded. Whenever possible, dead mice were autopsied and a limited sample of organs sent for histopathological examination. Blood counts and body weights were checked weekly. The blood counts were done in a Coulter analyzer with a 20 μl sample obtained from the retro-orbital blood sinuses. One-third of the mice of each group were sacrificed on day 42, after 3 injections. A second third was sacrificed on day 84, after 6 injections. The remaining mice were sacrificed on day 180, 82 days after the 8the and last injection. Before sacrifice, the mice were bled under light ether anesthesia to obtain serum for the biochemical tests. The animals were then dissected and the removed organs, after weighing, were fixed in Bouin's solution and processed for light microscopy examination with hematoxylin-eosin-phosphomolybdic acid: light green stain.
d) Effects on Blood Biochemistry Values. Blood levels of glucose, cholesterol, triglycerides, urea, uric acid, creatine, and total protein were measured at 42, 84, and 180 day time points. Blood enzyme levels of alkaline phosphatase, aspartate aminotransferase, and alanine aminotransferase were also assayed at these time points.
The most important differences in blood chemistry between F-DXR and L-DXR administration occurred in blood glucose, cholesterol, and triglyceride levels. These differences are seen in Table III below, which gives data on female mice receiving 10 mg/kg of either F-DXR or L-DXR. Glucose, cholesterol, and triglyceride levels are expressed as percent control (untreated) animals, and "nm" means "not measured".

[2] = liposome form, animals; cited from earlier work
[3] = heart, read-out: DXR level in Heart
[4] = intestine, read-out: DXR level in Intestine
[5] = kidney, read-out: DXR level in Kidney
[6] = liver, read-out: DXR level in Liver
[7] = lungs, read-out: DXR level in Lungs
[8] = skeletal muscle, read-out: DXR level in Skeletal Muscle
[9] = spleen, read-out: DXR level in Spleen

Q: Which concentration at 1 h [1, 3] does the source give for `COc1cccc2c1C(=O)c1c(O)c3c(c(O)c1C2=O)C[C@@](O)(C(=O)CO)C[C@@H]3O[C@H]1C[C@H](N)[C@H](O)[C@H](C)O1` [DXR, doxorubicin] here?
A: The concentration at 1 h was 8400 ng/g.

Q: And the concentration at 5 h [1, 3]?
A: Its concentration at 5 h is 4200 ng/g.

Q: What about the concentration at 24 h [1, 3] of the same compound?
A: Its concentration at 24 h is 900 ng/g.

Q: What about the concentration at 1 h [1, 4] of the same compound?
A: Its concentration at 1 h is 5800 ng/g.

Q: What about the concentration at 5 h [1, 4] of the same compound?
A: The concentration at 5 h was 3100 ng/g.

Q: And the concentration at 24 h [1, 4]?
A: Its concentration at 24 h is 1900 ng/g.

Q: And the concentration at 1 h [1, 5]?
A: The concentration at 1 h was 31900 ng/g.

Q: And the concentration at 5 h [1, 5]?
A: Its concentration at 5 h is 19400 ng/g.

Q: What about the concentration at 24 h [1, 5] of the same compound?
A: The concentration at 24 h was 6900 ng/g.

Q: And the concentration at 1 h [1, 6]?
A: Its concentration at 1 h is 30500 ng/g.

Q: And the concentration at 5 h [1, 6]?
A: The concentration at 5 h was 16400 ng/g.

Q: What about the concentration at 24 h [1, 6] of the same compound?
A: The concentration at 24 h was 3800 ng/g.

Q: And the concentration at 1 h [1, 7]?
A: The concentration at 1 h was 13200 ng/g.

Q: What about the concentration at 5 h [1, 7] of the same compound?
A: The concentration at 5 h was 8600 ng/g.

Q: What about the concentration at 24 h [1, 7] of the same compound?
A: The concentration at 24 h was 3600 ng/g.

Q: And the concentration at 1 h [1, 8]?
A: The concentration at 1 h was 2300 ng/g.

Q: What about the concentration at 5 h [1, 8] of the same compound?
A: Its concentration at 5 h is 2800 ng/g.

Q: What about the concentration at 24 h [1, 8] of the same compound?
A: The concentration at 24 h was 590 ng/g.

Q: And the concentration at 1 h [1, 9]?
A: Its concentration at 1 h is 8100 ng/g.

Q: What about the concentration at 5 h [1, 9] of the same compound?
A: The concentration at 5 h was 10700 ng/g.

Q: And the concentration at 24 h [1, 9]?
A: Its concentration at 24 h is 8800 ng/g.

Q: And the “blood cholesterol” value (Sabra mice; 10 mg/kg)?
A: The value was “hypercholesterolemia”.

Q: And the “blood glucose” value (Sabra mice; 10 mg/kg)?
A: The value was “decreased blood glucose”.

Q: What about the “blood triglyceride” value (Sabra mice; 10 mg/kg) of the same compound?
A: Its value is “hyperglyceridemia”.

Q: What about the creatine levels (Sabra mice; 7.5 and 5 mg/kg, 180 days) of the same compound?
A: The creatine levels was “increased creatine levels”.

Q: And the alanine aminotransferase (Sabra mice; 180 days)?
A: Its alanine aminotransferase is “a drop in alanine aminotransferase”.

Q: And the “Cholesterol, percent control (untreated)” value (Sabra mice; female, day 42, 10 mg/kg)?
A: Its value is 300 percent control.

Q: And the “Glucose, percent control (untreated)” value (Sabra mice; female, day 42, 10 mg/kg)?
A: Its value is 97 percent control.

Q: And the “Cholesterol, percent control (untreated)” value (Sabra mice; female, day 84, 10 mg/kg)?
A: Its value is 383 percent control.

Q: And the “Glucose, percent control (untreated)” value (Sabra mice; female, day 84, 10 mg/kg)?
A: Its value is 57 percent control.

Q: What about the “Triglyceride, percent control (untreated)” value (Sabra mice; female, day 84, 10 mg/kg) of the same compound?
A: Its value is 416 percent control.

Q: What about the “liver enzymes (alkaline phosphatase and aminotransferases)” value (Sabra mice; mouse, in vivo) of the same compound?
A: Its value is “Increased liver enzymes”.

Q: And the “toxicity as judged by reduced mortality” value [2]?
A: Its value is “significantly less toxic, as judged by reduced mortality”.
